Source: US20250230138A1, “COMPOUNDS HAVING A T-STRUCTURE FORMED BY AT LEAST FOUR CYCLES FOR USE IN THE TREATMENT OF CANCER AND OTHER INDICATIONS” (TheRas, Inc., priority 2022, published 2025)
Where two headings read alike, the source gives them in different places.

Columns and labels:
[1] = biological target: Cys242 in human PIK3CA (157-299) (Homo sapiens (Human), UniProt P42336); test: Covalent modification assay using MALDI-TOF MS; format: biochemical; details: 4 h reaction time point
In short: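 PIK3CA (157-299), 3.33 or 1 μM in 20 mM HEPES, 150 mM NaCl, 2 mM MgCl2, pH 7.3, was incubated with compound at room temperature in the dark for 15 min, 30 min, 2 h or 4 h. Linear MALDI-TOF read-out; % modification = adduct peak height over summed heights of all protein species.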

pAKT in BT474 cells = test: Cell-based pAKT HTRF assay in BT474 cells; details: BT474 cells, 4 hr incubation, read-out: pAKT inhibition IC50 in BT474 cells
In short: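 Treatment lasts 4 hr in DMEM/10% FBS at 0.25% DMSO over nine 3-fold dilutions from 3 μM. The lysate is then probed by HTRF.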

[2] = 3.33 μM protein target, 1:7.5 protein to compound ratio (compounds 1-852)
[3] = 1 μM protein target, 1:5 protein to compound ratio (compounds 853-1279)

Chain of Cys242 in human PIK3CA (157-299) (P42336 157-299): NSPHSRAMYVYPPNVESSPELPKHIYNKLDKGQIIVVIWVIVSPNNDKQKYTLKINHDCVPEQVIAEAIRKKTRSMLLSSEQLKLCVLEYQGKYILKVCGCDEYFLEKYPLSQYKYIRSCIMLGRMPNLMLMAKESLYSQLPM

Compound	% of modification [1, 2]	IC50 (pAKT in BT474 cells; Compounds 10-999) [nM]	% of modification [1, 3]	IC50 (pAKT in BT474 cells; Compounds 1000-1279) [nM]	IC50 (pAKT in BT474 cells; Homo sapiens, BT-474, Compounds 10-999) [nM]
C=CC(=O)N1CCc2nc(-c3nc(-c4ccn(C)c(=O)c4)c4ccsc4c3-c3c(F)cc(F)cc3OC(C)C)sc2C1 [Compound 352]	A (percent of modification of PIK3CA protein ≥75%)	< 100			
C=CC(=O)N1CCc2ncc(-c3nc(-c4cnc5c(c4)CN(C)CC5)c4ccsc4c3-c3ccc(F)cc3OC(C)C)cc2C1 [Compound 319]	A (percent of modification of PIK3CA protein ≥75%)	< 100			
C=CC(=O)N1CCn2nc(-c3nc(-c4cnc5cnn(C)c5c4)c4ccsc4c3-c3c(F)cc(F)cc3OCCOC)cc2C1C (stereo not shown) [Compound 902]		< 100	A (percent of modification of PIK3CA protein ≥75%)		
C=CC(=O)N1CC(n2cc(-c3nc(N4CCc5cn[nH]c5C4)c4ccsc4c3-c3ccc(F)cc3OCCOC)cn2)C1 [Compound 166]	A (percent of modification of PIK3CA protein ≥75%)	100 to 1000			
C=CC(=O)N1CCc2nc(-c3nc(-c4cnc5c(c4)CNC(=O)C5)c4ccsc4c3-c3ccc(F)cc3OCCOC)sc2C1 [Compound 119]	A (percent of modification of PIK3CA protein ≥75%)	< 100			
C=CC(=O)N1CCc2ncc(-c3nc(-c4cnn(CC(F)F)c4)c4ccsc4c3-c3c(F)cc(F)cc3OCCOC)cc2C1 [Compound 385]	A (percent of modification of PIK3CA protein ≥75%)	< 100			
C=CC(=O)N1Cc2cc(-c3nc(-c4ccc5c(c4)C(=O)N(C)C5)c4ccsc4c3-c3c(F)cc(F)cc3OC)nn2[C@@H](C)C1 [Compound 905]		100 to 1000	C (25%≤percent of modification <50%)		
C=CC(=O)N1CCn2nc(-c3nc(-c4cnc5c(cnn5C)c4)c4ccsc4c3-c3c(F)cc(F)cc3OCCOC)cc2[C@@H]1C [Compound 888]		< 100	A (percent of modification of PIK3CA protein ≥75%)		
C=CC(=O)N1Cc2cc(-c3nc(-c4ccc5c(c4)CCN(C)CC5)c4ccsc4c3-c3c(F)cc(F)cc3OCCOC)nn2C[C@H]1C [Compound 841]	A (percent of modification of PIK3CA protein ≥75%)	< 100			
C=CC(=O)N1CC(n2cc(-c3nc(C4CCC5(CC4)CNC5)c4ccsc4c3-c3ccc(F)cc3OCCOC)cn2)C1 [Compound 147]	A (percent of modification of PIK3CA protein ≥75%)	1000 to 3000			
C=CC(=O)N1Cc2cc(-c3nc(-c4ccnc(N(C)C)c4)c4ccsc4c3-c3c(F)cc(F)cc3OCCOC)nn2C[C@H]1C [Compound 839]	A (percent of modification of PIK3CA protein ≥75%)	< 100			
C=CC(=O)N1CCc2ncc(-c3nc(-c4cnn(C)c4)c4ccsc4c3-c3c(F)cc(F)cc3OCCO)cc2C1 [Compound 395]	A (percent of modification of PIK3CA protein ≥75%)	< 100			
C=CC(=O)N1CCn2nc(-c3nc(-c4ccc(OC5CN(C)C5)cc4)c4ccsc4c3-c3c(F)cc(F)cc3OCCO)cc2C1C (stereo not shown) [Compound 1198]			A (percent of modification of PIK3CA protein ≥75%)	< 100	
C=CC(=O)N1CCn2nc(-c3nc(-c4ccc(CC(=O)N5CC(F)(F)C5)cc4)c4ccsc4c3-c3c(F)cc(F)cc3OCCOC)cc2C1C (stereo not shown) [Compound 1102]			A (percent of modification of PIK3CA protein ≥75%)	< 100	
C=CC(=O)N1CCc2nc(-c3nc(-c4ccnc(N)c4)c4ccsc4c3-c3ccc(F)cc3OCCOC)sc2C1 [Compound 141]	A (percent of modification of PIK3CA protein ≥75%)	< 100			
C=CC(=O)N1CCn2nc(-c3nc(-c4ccnc(N(C)C)c4)c4ccsc4c3-c3c(F)cc(F)cc3OCCO)cc2C1C (stereo not shown) [Compound 959]		< 100	A (percent of modification of PIK3CA protein ≥75%)		
C=CC(=O)N1CCn2nc(-c3cc(-c4cnn(C)c4)cnc3-c3ccc(F)cc3OCCOC)cc2C1 [Compound 281, 1-[2-[2-[4-fluoro-2-(2-methoxyethoxy)phenyl]-5-(1-methylpyrazol-4-yl)-3-pyridyl]-6,7-dihydro-4H-pyrazolo[1,5-a]pyrazin-5-yl]prop-2-en-1-one]	C (25%≤percent of modification <50%)				> 3000
C=CC(=O)N1Cc2cc(-c3nc(-c4ccc5cnn(C)c5c4)c4ccsc4c3-c3c(F)cc(F)cc3OCC(C)O)nn2C(C)C1 (stereo not shown) [Compound 680]	A (percent of modification of PIK3CA protein ≥75%)	< 100			
C=CC(=O)N1CC(n2cc(-c3nc(C4CCN(C(C)=O)CC4)c4ccsc4c3-c3ccc(F)cc3OC)cn2)C1 [Compound 297]	B (50%<percent of modification <75%)	1000 to 3000			

Compound	% of modification [1, 2]	IC50 (pAKT in BT474 cells; Compounds 10-999) [nM]	% of modification [1, 3]	IC50 (pAKT in BT474 cells; Compounds 1000-1279) [nM]	IC50 (pAKT in BT474 cells; Homo sapiens, BT-474, Compounds 10-999) [nM]
C=CC(=O)N1CCn2nc(-c3nc(-c4ccc5c(c4)NC(=O)CN(C)C5)c4ccsc4c3-c3c(F)cc(F)cc3OCCO)cc2C1C (stereo not shown) [Compound 1195]			A (percent of modification of PIK3CA protein ≥75%)	< 100	
C=CC(=O)N1CCc2ncc(-c3nc(-c4ccc(=O)n(C(F)F)c4)c4ccsc4c3-c3c(F)cc(F)cc3OC(C)C)cc2C1 [Compound 335]	A (percent of modification of PIK3CA protein ≥75%)	< 100			
C=CC(=O)N1CCn2nc(-c3nc(-c4ccc5c(c4)CCC5N(C)C)c4ccsc4c3-c3c(F)cc(F)cc3OCCOC)cc2C1C (stereo not shown) [Compound 1155]			A (percent of modification of PIK3CA protein ≥75%)	< 100	
C=CC(=O)N1CC(n2cc(-c3nc(-c4ccc5c(c4)CCNC5)c4ccsc4c3-c3ccc(F)cc3F)cn2)C1 [Compound 108]	A (percent of modification of PIK3CA protein ≥75%)	100 to 1000			
C=CC(=O)N1CCc2ncc(-c3nc(-c4ccn(C)c(=O)c4)c4ccsc4c3-c3c(F)cc(F)cc3OC(C)C)cc2C1 [Compound 336]	A (percent of modification of PIK3CA protein ≥75%)	< 100			
C=CC(=O)N1CCn2nc(-c3nc(-c4ccc5cnn(C)c(=O)c5c4)c4ccsc4c3-c3c(F)cc(F)cc3OCCOC)cc2[C@@H]1C [Compound 898]		< 100	A (percent of modification of PIK3CA protein ≥75%)		
C=CC(=O)N1CCn2nc(-c3nc(-c4cnn(C)c4)c4ccsc4c3-c3ccc(F)cc3OC(C)C)cc2C1C (stereo not shown) [Compound 394]	A (percent of modification of PIK3CA protein ≥75%)	< 100			
C=CC(=O)N1CCn2nc(-c3nc(-c4ccc5c(c4)CN(C)C(=O)C5)c4ccsc4c3-c3c(F)cc(F)cc3OCCO)cc2[C@H]1C [Compound 973]		< 100	A (percent of modification of PIK3CA protein ≥75%)		
C=CC(=O)N1CCn2nc(-c3nc(-c4ccc5cnn(C)c(=O)c5c4)c4ccsc4c3-c3c(F)cc(F)cc3OCCOC)cc2C1C (stereo not shown) [Compound 928]		< 100	A (percent of modification of PIK3CA protein ≥75%)		
C=CC(=O)N1CCn2nc(-c3nc(-c4ccc(C(=O)NCC5CN(C)C5)cc4)c4ccsc4c3-c3c(F)cc(F)cc3OCCOC)cc2C1C (stereo not shown) [Compound 1190]			A (percent of modification of PIK3CA protein ≥75%)	100 to 1000	
C=CC(=O)N1CCc2nc(-c3nc(-c4ccc5c(c4)NC(=O)C5)c4ccsc4c3-c3c(F)cc(F)cc3OCCOC)sc2C1 [Compound 1003]			A (percent of modification of PIK3CA protein ≥75%)	< 100	
C=CC(=O)N1CCn2nc(-c3nc(-c4ccc([C@H](N(C)C)C(F)(F)F)cc4)c4ccsc4c3-c3c(F)cc(F)cc3OCCOC)cc2[C@H]1C (single isomer, unassigned) [Compound 1150]			A (percent of modification of PIK3CA protein ≥75%)	100 to 1000	
C=C(F)C(=O)N1CC(n2cc(-c3nc(-c4ccc5c(c4)CCNC5)c4ccsc4c3-c3ccc(F)cc3OC)cn2)C1 [Compound 114]	A (percent of modification of PIK3CA protein ≥75%)	1000 to 3000			
C=CC(=O)N1CCc2nc(-c3nc(-c4ccc5c(c4)CCN(C)C5)c4ccsc4c3-c3c(F)cc(F)cc3OCCOC)sc2C1 (single isomer, unassigned) [Compound 449]	D (percent of modification <25%)	1000 to 3000			
C=CC(=O)N1Cc2cc(-c3nc(-c4ccc5ncn(C)c(=O)c5c4)c4ccsc4c3-c3c(F)cc(F)cc3OCCOC)nn2C[C@H]1C [Compound 842]	A (percent of modification of PIK3CA protein ≥75%)	< 100			
C=CC(=O)N1CCc2ncc(-c3nc(N4CCC5(CC4)COC5)c4ccsc4c3-c3c(F)cc(F)cc3OC(C)C)cc2C1 [Compound 423]	A (percent of modification of PIK3CA protein ≥75%)	100 to 1000			
C=CC(=O)N1CCc2ncc(-c3nc(-c4ccc5nncn5c4)c4ccsc4c3-c3c(F)cc(F)cc3OCCOC)cc2C1 [Compound 941]		< 100	A (percent of modification of PIK3CA protein ≥75%)		
C=CC(=O)N1CCn2nc(-c3nc(-c4ccc5c(c4)CCN(C)C5)c4ccsc4c3-c3c(F)cc(F)cc3OCC(C)O)cc2C1C (stereo not shown) [Compound 550]	A (percent of modification of PIK3CA protein ≥75%)	< 100			
C=CC(=O)N1CCc2sc(-c3nc(-c4ccc5c(c4)CCNC5)c4ccsc4c3-c3ccc(F)cc3OCCOC)nc2C1 [Compound 146]	A (percent of modification of PIK3CA protein ≥75%)	< 100			
